Source: patent publication EP4745134A1 (Jiangsu Yahong Meditech Co., Ltd., priority 2023, dated 2025)
Like-named read-outs stand apart in the source and are kept apart here.

What was measured:
[1] = test system: HCT116 MTAP KO cells; test: Inhibitory activity against cell proliferation (CellTiter Glo, 6 days), HCT116 MTAP KO; format: cell-based; conditions: for IC50: HCT116 MTAP KO cells, 6 days, CellTiter Glo, read-out: HCT116 MTAP KO IC50; for Selectivity HCT 116-WT/ HCT116 MTAP KO: ratio of IC50 HCT116-WT / HCT116 MTAP KO
How it was run: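 Luminescence read-out (CellTiter Glo, 10 min shaking at room temperature) after 6 days of compound exposure; IC50 fitted against DMSO controls. Top dose 10000 nM, 4-fold steps, 8 points; 250 cells/well in McCoy's 5A + 10% FBS.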

[2] = test system: HCT116-WT cells; test: Inhibitory activity against cell proliferation (CellTiter Glo, 6 days), HCT116-WT; format: cell-based; conditions: HCT116-WT cells, 6 days, CellTiter Glo, read-out: HCT116-WT IC50
Protocol: HCT116-WT (ATCC, CCL-247) and HCT116 MTAP KO (Nanjing Cobioer, CBP75002) cells were seeded into white low-transparency sterile 96-well cell culture plates at a density of 250 cells per well respectively, and the culture medium was McCoy's 5A Medium+10% FBS. The plates were placed under the condition of 37°C and 5% CO2 to be cultured overnight. The cells were treated with 4-fold serially diluted compounds of 8 concentration points starting at an initial concentration of 10000 nM, and the last two columns were used as control wells to which only DMSO was added. The drug-treated cells were further cultured for 6 days. On day 7, CellTiter Glo® reagent was added at 50 uL per well, and after reaction under shaking for 10 minutes at room temperature, the chemiluminescence signals were detected for the well plates through the chemiluminescence detection method using a BIOTEK H1 multifunctional microplate-reader. The IC50 values for inhibition of the compounds on cell viability were calculated in X1fit 5.0 software. Table 2. IC50 values for inhibition of the compounds on HCT116 MTAP KO/WT cell growth

Row | IC50 ([1]; Homo sapiens, HCT-116, 144 h) | IC50 ([2]; 144 h) | SMILES | Selectivity HCT 116-WT/ HCT116 MTAP KO [1] | IC50 [1] | IC50 [2]
1 | 139 nM | 2530 nM | Cc1cc2cc(C(=O)N(Cc3ccc(C(F)(F)F)cn3)n3ccc4ccccc43)ccc2nc1N [Example 28, 2-amino-N-(1H-indol-1-yl)-3-methyl-N-((5-(trifluoromethyl)pyridin-2-yl)methyl)quinoline-6-carboxamide] | 18.22 |  | 
2 |  |  | Cc1cc2nc(N)c3cnn(C)c3c2cc1C(=O)N1C(C)CCN1c1ncccc1F (stereo not drawn) [Example 376, (4-amino-1,7-dimethyl-1H-pyrazolo[4,3-c]quinolin-8-yl)(2-(3-fluoropyridin-2-yl)-5-methylpyrazolidin-1-yl)methanone] | 35.48 | 105 nM | 3720 nM
3 | 257 nM | 4230 nM | Cc1cc2cc(C(=O)N(Cc3ccc(-c4cn(C)cn4)cn3)N(C)c3ncccn3)ccc2nc1N [Example 194, 2-amino-N',3-dimethyl-N-((5-(1-methyl-1H-imidazol-4-yl)pyridin-2-yl)methyl)-N '-(pyrimidin-2-yl)quinoline-6-carbohydrazide] | 16.46 |  | 
4 | 52 nM | 875 nM | Cc1cc2cc(C(=O)N(Cc3ccc(-c4ccc(N5CCC5)nc4)cn3)N(C)c3ncccn3)ccc2nc1N [Example 256, 2-amino-N-((6'-(azetidin-1-yl)-[3,3'-bipyridin]-6-yl)methyl)-N',3-dimethyl-N'-(pyrimidin-2-yl)quinoline-6-carbohydrazide] | 16.83 |  | 
5 | 40 nM | 1510 nM | COC1CN(C(=O)c2cc3c(cc2C)nc(N)c2cnn(C)c23)N(c2ncc(Br)cc2F)C1 (stereo not drawn) [Example 438, (4-amino-1,7-dimethyl-1H-pyrazolo[4,3-c]quinolin-8-yl)(2-(5-bromo-3-fluoropyridin-2-yl)-4-methoxypyrazolidin-1-yl)met hanone] | 37.65 |  | 
6 | 81 nM | 978 nM | CCN(CC)c1ccc(-c2ccc(CN(C(=O)c3ccc4nc(N)c(C)cc4c3)N(C)c3ncccn3)nc2)cn1 [Example 255, 2-amino-N-((6'-(diethylamino)-[3,3'-bipyridin]-6-yl)methyl)-N',3-dimethyl-N'-(pyrimidin-2-yl)quinoline-6-carbohydrazide] | 12.07 |  | 
7 |  |  | Cc1cc2cc(C(=O)N(Cc3ccc(-c4cnc5c(cnn5C)c4)cn3)N(C)c3ncccn3)ccc2nc1N [Example 198, 2-amino-N',3-dimethyl-N-((5-(1-methyl-1H-pyrazolo[3,4-b]pyridin-5-yl)pyridin-2-yl)methyl)-N'-(pyrimidin-2-yl)quinoline-6-carbohydrazide] | 26.09 | 32 nM | 835 nM
8 | 29 nM | 694 nM | Cc1cc2cc(C(=O)N(Cc3ccc(-c4cccs4)cn3)N(C)c3ncccn3)ccc2nc1N [Example 214, 2-amino-N',3-dimethyl-N'-(pyrimidin-2-yl)-N-((5-(thien-2-yl)pyridin-2-yl)methyl) quinoline-6-carbohydrazide] | 23.93 |  | 
9 | 97 nM | 5860 nM | Cc1cc2nc(N)c3cnn(C)c3c2cc1C(=O)N1CCCN1c1ncc(-c2cnn(C)c2)cc1F [Example 471, (4-amino-1,7-dimethyl-1H-pyrazolo[4,3-c]quinolin-8-yl)(2-(3-fluoro-5-(1-methyl-1H-pyrazol-4-yl)pyridin-2-yl)pyrazolidin-1-yl)methanone] | 60.37 |  | 
10 | 49 nM | 700 nM | Cn1ncc2c(N)nc3cc(Cl)c(C(=O)N4CC(C)(F)CN4c4cccc(F)n4)cc3c21 (stereo not drawn) [Example 426, (4-amino-7-chloro-1-methyl-1H-pyrazolo [4,3-c]quinolin-8-yl)(4-fluoro-2-(6-fluoropyridin-2-yl)-4-methylpyrazolidin-1-yl)m ethanone] | 14.29 |  | 
11 | 131 nM | 3390 nM | Cc1cc2cc(C(=O)N(Cc3ccc(-c4cnoc4)cn3)N(C)c3ncccn3)ccc2nc1N [Example 182, 2-amino-N-((5-(isoxazol-4-yl)pyridin-2-yl)methyl)-N',3-dimethyl-N'-(pyrimidin-2-yl)quinoline-6-carbohydrazide] | 25.89 |  | 
12 | 17 nM | 404 nM | Cc1cc2cc(C(=O)N(Cc3ccc(I)cn3)N(C)c3ncccn3)ccc2nc1N [Example 263, 2-amino-N-((5-iodopyridin-2-yl)methyl)-N',3-dimethyl-N'-(pyrimidin-2-yl)quinoline-6-carbohydrazide] | 23.76 |  | 
13 | 12 nM | 321 nM | COC1(C)CN(C(=O)c2cc3c(cc2C)nc(N)c2cnn(C)c23)N(c2ncccc2F)C1 (stereo not drawn) [Example 428, (4-amino-1,7-dimethyl-1H-pyrazolo[4,3-c]quinolin-8-yl)(2-(3-fluoropyridin-2-yl)-4-methoxy-4-methylpyrazolin-1-yl)methanone] | 26.75 |  | 
14 | 150 nM | 4800 nM | Cc1cc2nc(N)c3cnn(C)c3c2cc1C(=O)N1CC(O)(C(F)(F)F)CN1c1ncccc1F (stereo not drawn) [Example 355, (4-amino-1,7-dimethyl-1H-pyrazolo[4,3-c]quinolin-8-yl)(2-(3-fluoropyridin-2-yl)-4-hydroxy-4-(trifluoromethyl)pyrazolidin-1-yl)methanone] | 32.00 |  | 
15 | 14 nM | 396 nM | Cc1cc2cc(C(=O)N(Cc3ccc(-c4cncs4)cn3)N(C)c3ncccn3)ccc2nc1N [Example 204, 2-amino-N',3-dimethyl-N'-(pyrimidin-2-yl)-N-((5-(thiazol-5-yl)pyridin-2-yl)methyl)quinoline-6-carbohydrazide] | 28.29 |  | 
16 | 26 nM | 488 nM | Cc1cc2cc(C(=O)N(Cc3ccc(-c4ccc(N5CCNCC5)nc4)cn3)N(C)c3ncccn3)ccc2nc1N [Example 207, 2-amino-N',3-dimethyl-N-((6'-(piperazin-1-yl)-[3,3'-bipyridine]-6-yl)methyl)-N'-(pyrimidin-2-yl)quinoline-6-carbohydrazide] | 18.77 |  | 
17 | 25 nM | 666 nM | Cc1cc2cc(C(=O)N(Cc3ccc(C(F)(F)C(F)(F)F)cn3)N(C)c3ncccn3)ccc2nc1N [Example 293, 2-amino-N,3-dimethyl-N-((5-(perfluoroethyl)pyridin-2-yl)methyl)-N-(pyrimidin-2-yl)q uinoline-6-carbohydrazide] | 26.64 |  | 
18 | 16 nM | 717 nM | Cc1cc2nc(N)c3cnn(C)c3c2cc1C(=O)N1CC(C)CN1c1ncc(Cl)cc1F (stereo not drawn) [Example 394, (4-amino-1,7-dimethyl-1H-pyrazolo[4,3-c]quinolin-8-yl)(2-(5-chloro-3-fluoropyridin-2-yl)-4-methylpyrazolidin-1-yl)metha none] | 44.81 |  | 

Row | SMILES | IC50 ([1]; Homo sapiens, HCT-116, 144 h) | IC50 ([2]; 144 h) | Selectivity HCT 116-WT/ HCT116 MTAP KO [1] | IC50 [1] | IC50 [2]
19 | Cc1cc2cc(C(=O)N(Cc3ccc(-c4ccc(N(C)CCN(C)C)nc4)cn3)N(C)c3ncccn3)ccc2nc1N [Example 260, 2-amino-N-((6'-((2-(dimethylamino)ethyl)(methyl)amino)-[3,3'-bipyridine]-6-yl)methyl) -N', 3-dimethyl-N'-(pyrimidin-2-yl)quinoline-6-carbohydrazide] | 21 nM | 465 nM | 22.14 |  | 
